Common to all, as to assay: relative viability (nuclei count vs DMSO), 5 days (fraction); higher = more cells survive
Compound in the assay “Lestaurtinib + OSI-027”: C[C@]12O[C@H](C[C@]1(O)CO)n1c3ccccc3c3c4c(c5c6ccccc6n2c5c31)CNC4=O [Lestaurtinib] + COc1cccc2cc(-c3nc([C@H]4CC[C@H](C(=O)O)CC4)n4ncnc(N)c34)[nH]c12 [OSI-027] (partner 0.5 µM)
Summed up: (§1)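 After 5 days of treatment, lung cancer cells in 1536-well plates were fixed and stained in a single step (final 0.05% Triton X-100, 1% formaldehyde, 1 ug/ml Hoechst) and their nuclei counted on 4× images. Treatment had been applied by pin tool the day after seeding as one drug alone or as a fixed anchor-drug dose with five library-drug doses (not always all listed) in √10 steps. Relative viability is the nuclei count of treated wells divided by that of vehicle wells, and values are medians of duplicate plates.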

Compound in the assay “TPCA-1 + Linsitinib”: C1=CC(=CC=C1C2=CC(=C(S2)NC(=O)N)C(=O)N)F [TPCA-1] + C[C@]1(O)C[C@@H](c2nc(-c3ccc4ccc(-c5ccccc5)nc4c3)c3c(N)nccn32)C1 [Linsitinib] (partner 1 µM)
Summed up:
as §1

Compound in assay [1]: C[C@]12O[C@H](C[C@]1(O)CO)n1c3ccccc3c3c4c(c5c6ccccc6n2c5c31)CNC4=O [Lestaurtinib] + Nc1nc2[nH]cc(CCc3ccc(C(=O)N[C@@H](CCC(=O)O)C(=O)O)cc3)c2c(=O)[nH]1 [Pemetrexed] (partner 0.2 µM)
Summed up: as §1

Compound in assay [2]: C[C@]12O[C@H](C[C@]1(O)CO)n1c3ccccc3c3c4c(c5c6ccccc6n2c5c31)CNC4=O [Lestaurtinib] + CCNC(=O)c1noc(-c2cc(C(C)C)c(O)cc2O)c1-c1ccc(CN2CCOCC2)cc1 [Luminespib] (partner 0.01 µM)
The essentials:
as §1

On to NCI-H647, for which the relative viability with Lestaurtinib + OSI-027 (first compound 0.005 µM) came to 0.6; with Lestaurtinib + OSI-027 (first compound 0.01581 µM), 0.562; in the assay with Lestaurtinib + OSI-027 (first compound 0.05 µM), 0.28; in the assay with Lestaurtinib + OSI-027 (first compound 0.1581 µM) it was 0.205; with Lestaurtinib + OSI-027 (first compound 0.5 µM), 0.143; with TPCA-1 + Linsitinib (first compound 0.04 µM), 1.11. The relative viability in the assay with TPCA-1 + Linsitinib (first compound 0.1265 µM) amounted to 1.07; with TPCA-1 + Linsitinib (first compound 0.4 µM), 1.1; with TPCA-1 + Linsitinib (first compound 1.265 µM) it was 1.05; with TPCA-1 + Linsitinib (first compound 4 µM), 0.694; in assay [1] (first compound 0.005 µM), 0.187; in assay [1] (first compound 0.01581 µM), 0.162. Also, the relative viability in assay [1] (first compound 0.05 µM) worked out at 0.183; in assay [1] (first compound 0.1581 µM), 0.119; in assay [1] (first compound 0.5 µM), 0.064; in assay [2] (first compound 0.005 µM), 0.153; in assay [2] (first compound 0.01581 µM), 0.115; in assay [2] (first compound 0.05 µM), 0.12. Besides, the relative viability was 0.0972 in assay [2] (first compound 0.1581 µM) and 0.0647 in assay [2] (first compound 0.5 µM).

On to NCI-H650, for which the relative viability was 0.536 with Lestaurtinib + OSI-027 (first compound 0.005 µM); 0.6 with Lestaurtinib + OSI-027 (first compound 0.01581 µM); 0.441 in the assay with Lestaurtinib + OSI-027 (first compound 0.05 µM); 0.364 with Lestaurtinib + OSI-027 (first compound 0.1581 µM); 0.313 with Lestaurtinib + OSI-027 (first compound 0.5 µM); 1.08 with TPCA-1 + Linsitinib (first compound 0.04 µM). Further, the relative viability stood at 0.755 in the assay with TPCA-1 + Linsitinib (first compound 0.1265 µM); 0.89 with TPCA-1 + Linsitinib (first compound 0.4 µM); 0.382 in the assay with TPCA-1 + Linsitinib (first compound 1.265 µM); 0.465 in the assay with TPCA-1 + Linsitinib (first compound 4 µM); 0.938 in assay [1] (first compound 0.005 µM); 1.01 in assay [1] (first compound 0.01581 µM). In addition, the relative viability was found to be 0.557 in assay [1] (first compound 0.05 µM); 0.573 in assay [1] (first compound 0.1581 µM); 0.33 in assay [1] (first compound 0.5 µM); 0.824 in assay [2] (first compound 0.005 µM); 0.703 in assay [2] (first compound 0.01581 µM); 0.635 in assay [2] (first compound 0.05 µM). The relative viability amounted to 0.322 in assay [2] (first compound 0.1581 µM) and 0.239 in assay [2] (first compound 0.5 µM).

As for NCI-H661, the relative viability in the assay with Lestaurtinib + OSI-027 (first compound 0.005 µM) is 0.623; with Lestaurtinib + OSI-027 (first compound 0.01581 µM), 0.736; with Lestaurtinib + OSI-027 (first compound 0.05 µM), 0.405; in the assay with Lestaurtinib + OSI-027 (first compound 0.1581 µM) it was 0.589; with Lestaurtinib + OSI-027 (first compound 0.5 µM) it was 0.372; in the assay with TPCA-1 + Linsitinib (first compound 0.04 µM), 0.524. In addition, the relative viability worked out at 0.487 with TPCA-1 + Linsitinib (first compound 0.1265 µM); 0.706 with TPCA-1 + Linsitinib (first compound 0.4 µM); 0.534 with TPCA-1 + Linsitinib (first compound 1.265 µM); 0.411 in the assay with TPCA-1 + Linsitinib (first compound 4 µM); 0.972 in assay [1] (first compound 0.005 µM); 1.03 in assay [1] (first compound 0.01581 µM). Also, the relative viability in assay [1] (first compound 0.05 µM) amounted to 0.836; in assay [1] (first compound 0.1581 µM) it was 0.702; in assay [1] (first compound 0.5 µM), 0.523; in assay [2] (first compound 0.005 µM) it was 0.895; in assay [2] (first compound 0.01581 µM) it was 0.88; in assay [2] (first compound 0.05 µM), 0.853. The values for the relative viability in assay [2] (first compound 0.1581 µM) and in assay [2] (first compound 0.5 µM) were 0.729 and 0.363, respectively.

As for NCI-H838, the relative viability with Lestaurtinib + OSI-027 (first compound 0.005 µM) was found to be 0.399; with Lestaurtinib + OSI-027 (first compound 0.01581 µM) it was 0.441; in the assay with Lestaurtinib + OSI-027 (first compound 0.05 µM), 0.397; with Lestaurtinib + OSI-027 (first compound 0.1581 µM), 0.446; with Lestaurtinib + OSI-027 (first compound 0.5 µM) it was 0.228; in the assay with TPCA-1 + Linsitinib (first compound 0.04 µM) it was 1.06. The relative viability in the assay with TPCA-1 + Linsitinib (first compound 0.1265 µM) worked out at 0.868; with TPCA-1 + Linsitinib (first compound 0.4 µM), 0.962; in the assay with TPCA-1 + Linsitinib (first compound 1.265 µM) it was 0.886; with TPCA-1 + Linsitinib (first compound 4 µM), 0.811; in assay [1] (first compound 0.005 µM), 0.263; in assay [1] (first compound 0.01581 µM), 0.272. The relative viability in assay [1] (first compound 0.05 µM) was determined as 0.231; in assay [1] (first compound 0.1581 µM), 0.197; in assay [1] (first compound 0.5 µM), 0.126; in assay [2] (first compound 0.005 µM) it was 0.321; in assay [2] (first compound 0.01581 µM), 0.321; in assay [2] (first compound 0.05 µM), 0.284. Further, the relative viability in assay [2] (first compound 0.1581 µM) was 0.227; in assay [2] (first compound 0.5 µM), 0.197.

In the case of NCI-H1355, the relative viability was determined as 0.387 with Lestaurtinib + OSI-027 (first compound 0.005 µM); 0.438 in the assay with Lestaurtinib + OSI-027 (first compound 0.01581 µM); 0.362 in the assay with Lestaurtinib + OSI-027 (first compound 0.05 µM); 0.309 with Lestaurtinib + OSI-027 (first compound 0.1581 µM); 0.286 with Lestaurtinib + OSI-027 (first compound 0.5 µM); 0.99 in the assay with TPCA-1 + Linsitinib (first compound 0.04 µM). The relative viability is 0.709 with TPCA-1 + Linsitinib (first compound 0.1265 µM); 0.737 with TPCA-1 + Linsitinib (first compound 0.4 µM); 0.711 with TPCA-1 + Linsitinib (first compound 1.265 µM); 0.667 in the assay with TPCA-1 + Linsitinib (first compound 4 µM); 1.1 in assay [1] (first compound 0.005 µM); 1.08 in assay [1] (first compound 0.01581 µM). The relative viability in assay [1] (first compound 0.05 µM) stood at 0.928; in assay [1] (first compound 0.1581 µM), 0.754; in assay [1] (first compound 0.5 µM) it was 0.607; in assay [2] (first compound 0.005 µM), 0.646; in assay [2] (first compound 0.01581 µM), 0.625; in assay [2] (first compound 0.05 µM) it was 0.455. Moreover, the relative viability in assay [2] (first compound 0.1581 µM) turned out to be 0.493; in assay [2] (first compound 0.5 µM), 0.261.

For the cell line NCI-H1395, the relative viability is 0.546 in the assay with Lestaurtinib + OSI-027 (first compound 0.005 µM); 0.655 with Lestaurtinib + OSI-027 (first compound 0.01581 µM); 0.5 with Lestaurtinib + OSI-027 (first compound 0.05 µM); 0.482 with Lestaurtinib + OSI-027 (first compound 0.1581 µM); 0.374 with Lestaurtinib + OSI-027 (first compound 0.5 µM); 1.55 with TPCA-1 + Linsitinib (first compound 0.04 µM). Moreover, the relative viability in the assay with TPCA-1 + Linsitinib (first compound 0.1265 µM) was 0.954; with TPCA-1 + Linsitinib (first compound 0.4 µM), 1.07; with TPCA-1 + Linsitinib (first compound 1.265 µM), 0.959; with TPCA-1 + Linsitinib (first compound 4 µM), 0.884; in assay [1] (first compound 0.005 µM), 0.788; in assay [1] (first compound 0.01581 µM) it was 1.03. In addition, the relative viability is 0.559 in assay [1] (first compound 0.05 µM); 0.775 in assay [1] (first compound 0.1581 µM); 0.379 in assay [1] (first compound 0.5 µM); 0.654 in assay [2] (first compound 0.005 µM); 0.668 in assay [2] (first compound 0.01581 µM); 0.616 in assay [2] (first compound 0.05 µM). The relative viability in assay [2] (first compound 0.1581 µM) was 0.472; in assay [2] (first compound 0.5 µM), 0.374.

Regarding NCI-H1437, the relative viability with Lestaurtinib + OSI-027 (first compound 0.005 µM) came out at 0.885; with Lestaurtinib + OSI-027 (first compound 0.01581 µM), 0.949; in the assay with Lestaurtinib + OSI-027 (first compound 0.05 µM), 0.952; in the assay with Lestaurtinib + OSI-027 (first compound 0.1581 µM) it was 0.747; with Lestaurtinib + OSI-027 (first compound 0.5 µM) it was 0.698; with TPCA-1 + Linsitinib (first compound 0.04 µM), 1.17. Besides, the relative viability in the assay with TPCA-1 + Linsitinib (first compound 0.1265 µM) worked out at 0.936; with TPCA-1 + Linsitinib (first compound 0.4 µM), 1.02; with TPCA-1 + Linsitinib (first compound 1.265 µM) it was 0.926; in the assay with TPCA-1 + Linsitinib (first compound 4 µM), 0.754; in assay [1] (first compound 0.005 µM), 0.274; in assay [1] (first compound 0.01581 µM), 0.305. Also, the relative viability in assay [1] (first compound 0.05 µM) was determined as 0.293; in assay [1] (first compound 0.1581 µM), 0.23; in assay [1] (first compound 0.5 µM), 0.238; in assay [2] (first compound 0.005 µM), 1.21; in assay [2] (first compound 0.01581 µM), 1.26; in assay [2] (first compound 0.05 µM) it was 1.06. Further, the values for the relative viability in assay [2] (first compound 0.1581 µM) and in assay [2] (first compound 0.5 µM) were 1.16 and 0.962, respectively.
